Experiments:
[1] = system: low-density lipoproteins (LDL); assay: In vitro oxidation of LDL induced by AAPH (joint dienes, absorbance at 234 nm); assay type: biochemical; settings: increasing concentrations of CLM, 37° C.
From the text: (§1) Oxidation of the polyunsaturated fatty acids of LDL is accompanied by the formation of joint dienes, which have a maximum absorbance at 234 nm. These joint dienes result from rearrangement of the double bonds of polyunsaturated fatty acids following removal of a […] hydrogen. The increase in the absorption of joint dienes can be measured directly in solution without resorting to extraction of the lipids. A latency phase during which few dienes are produced, a propagation phase during which the absorbance at 234 nm increases rapidly to reach a plateau and a decomposition phase where the aldehydes formed also absorb in the region of 210-240 nm, thus producing a new increase in the absorbance at 234 nm, are observed in succession. Measurement of the conjugated dienes currently seems to be the best indicator of the oxidizability of LDL if pure LDL preparations are available (Esterbauer et al. (1989)). […]
(§2) To measure the joint dienes, a solution of LDL (final concentration of 50 μg protein/ml PBS buffer, pH 7.4) is incubated in the presence of 5 μM copper or […] and in the absence or in the presence of varying concentrations of CLM in a quartz cell with an optical path of 1 cm. The absorbances at 234 nm of various samples are measured as a function of time on a UV-visible spectrophotometer (DU-8, Beckman). […]

hepatocytes = assay: Protection of hepatocytes subjected to nitrofurantoin (MTT survival); assay type: cell-based, rat; settings: 3×10^−4 M NF for 6 hours, 5×10^−5 M CLM, MTT method, % of the controls
Method: (§3) Primary cultures of hepatocytes were subjected to the action of tert-butyl hydroperoxide (t-BHP) and nitrofurantoin (NF). The action of t-BHF is associated with its direct oxidizing power, while the action of NF results from the production of superoxide anions during its metabolization by the cytochrome P450 of cells.
FIG. 4 illustrates the survival of hepatocytes subjected to the action of 3×10^−4 M NF for 6 hours. At the end of this treatment, the survival (estimated by the MTT method) was 18% in the control groups. If CLM is added to the culture medium, the survival of the hepatocytes increases regularly, to reach 70% of the controls at 5×10^−5 M CLM.

[2] = system: human fibroblasts (MRC-5); assay: Toxicity on human fibroblasts (MRC-5); assay type: cell-based
Method: (§4) Coetenteramine was applied to primary cultures of rat hepatocytes cultured in microplates (20,000 cells per well, 200 μl ). The doses of CLM ranged from 1.3×10^−5 to 5×10^−4 M. After a period of 24 hours, their survival was evaluated by measuring the contents of total proteins in each well (Bradford method). […] Similar results were obtained on human fibroblasts (MRC-5) and human intestinal cells (CACO2).

fibroblasts = assay: Resistance of fibroblasts subjected to t-BHP (MTT cytotoxicity curve); assay type: cell-based; settings: 10^−5 M CLM, MTT test
From the text: FIG. 5 illustrates the increase in the resistance of fibroblasts subjected to the action of t-BHP by means of 10^−5 M CLM.

[3] = system: human low-density lipoproteins; assay: In vitro oxidation of LDL by copper (joint dienes at 234 nm; TBARS); assay type: biochemical
From the text: as §1, §2

[4] = system: human intestinal cells (CACO2); assay: Toxicity on human intestinal cells (CACO2); assay type: cell-based
Method: as §4

[5] = Stability towards oxygen (powder and in aqueous and organic solvents; HPLC and TLC analysis); assay type: physicochemical
From the text: In fact, this molecule is not changed by remaining in an aqueous solvent exposed to air for several days.

rat hepatocytes [6] = assay: Toxicity on primary cultures of rat hepatocytes (24 h, total proteins, Bradford method); assay type: cell-based; settings: 1.3×10^−5 to 5×10^−4 M CLM
Method: as §4

rat hepatocytes [7] = assay: Protection of hepatocytes treated with t-BHP (LDH release, mortality); assay type: cell-based
Method: as §3
The mortality, which is 75% in the controls, reaches only a few % in the presence of 50 μM CLM.

SMILES: Nc1ncc(-c2ccc(O)cc2)nc1Cc1ccccc1 [Coelenteramine]
- appearance of joint dienes in the oxidation of LDL by AAPH [1]: significant slowing down in the appearance of joint dienes
- survival of hepatocytes (hepatocytes): 70%
- toxicity [2]: absence of toxicity
- cytotoxicity curve of t-BHP (fibroblasts): significant displacement of the cytotoxicity curve
- protective action on LDL with respect to oxidation by copper ([3]; 5 μM copper, 30° C.): significant protective action
- appearance of TBARS (MDA) in the oxidation of LDL ([3]; human LDL oxidized by Cu2+, as a function of time): delay in the appearance of TBARS
- toxicity [4]: absence of toxicity
- degradation product identified by HPLC and TLC ([5]; aqueous solvent exposed to air for several days): no degradation product
- stability towards oxygen ([5]; powder and after solubilization in aqueous and organic solvents): excellent stability towards oxygen
- toxicity (percentage survival of controls) (rat hepatocytes [6]): not at all toxic
- mortality (rat hepatocytes [7]; 50 μM CLM): only a few %
- release of lactate dehydrogenase (LDH) (rat hepatocytes [7]; CLM 10 and 50 μM): reduction in the release of lactate dehydrogenase

From patent US6376498B1, “Pharmaceutical, cosmetic and/or food composition with antioxidant properties” (Universite Catholique de Louvain, priority 1997, dated 2002)
